From patent publication US20260201008A1, “SECRETIN-DERIVED GLP1R SELECTIVE AGONISTS” (GUBRA A/S, priority 2023, published 2026)
Where two headings read alike, the source gives them in different places. Numbered stars: 1 amine (or outer) side, 2 acyl side, 3 side chain; on linkers, the order of the positions; unused ones are H or OH. Square brackets hold non-standard residues; d marks the D form. Side chains are listed from the residue outwards. Peptide text beside a SMILES is read from it. * marks the point of attachment. C20 diacid = O=C(O)CCCCCCCCCCCCCCCCCCC(=O)*; γGlu = O=C(O)[C@H](CCC(=O)[*:2])N[*:1]; AEEA = NCCOCCOCC(=O)O; Aib = CC(C)(N)C(=O)O

Experiments:
GLP1R = GLP1R (Homo sapiens, UniProt P43220); experiment: hGLP1R potency, cAMP accumulation in CHO-K1 cells stably overexpressing hGLP1R; type: cell-based; design: host or cells: CHO-K1; conditions: for EC50: cAMP accumulation, CHO-K1 cells overexpressing hGLP1R; for SCTR EC50/GLP1R EC50 ratio: selectivity for hGLP1R over hSCTR, cAMP accumulation in CHO-K1 cells; for Selectivity: SCTR EC50/GLP1R EC50 ratio
Chain of GLP1R (P43220 24-463): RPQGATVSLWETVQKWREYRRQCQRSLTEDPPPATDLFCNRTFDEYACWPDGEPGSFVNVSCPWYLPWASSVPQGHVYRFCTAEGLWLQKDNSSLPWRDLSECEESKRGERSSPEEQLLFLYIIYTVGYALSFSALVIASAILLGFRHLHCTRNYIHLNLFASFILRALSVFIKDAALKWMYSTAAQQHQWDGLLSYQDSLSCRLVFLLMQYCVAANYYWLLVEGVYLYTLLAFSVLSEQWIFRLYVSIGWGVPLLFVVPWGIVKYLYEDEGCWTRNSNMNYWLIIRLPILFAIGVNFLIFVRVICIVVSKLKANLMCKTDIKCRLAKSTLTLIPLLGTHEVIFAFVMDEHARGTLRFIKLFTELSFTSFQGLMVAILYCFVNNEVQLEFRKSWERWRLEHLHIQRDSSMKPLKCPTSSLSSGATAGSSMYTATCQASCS
How it was run: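 2000 cells/well, DPBS + 0.05% casein + 0.5 mM IBMX; 30 min RT stimulation; HTRF cAMP detection after 1 h. Purified: 3-fold ×11, n=2; crude: 10-fold ×5, n=1. EC50 by variable-slope fit.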

[1] = Fibril formation of crude library peptides (Thioflavin T); type: physicochemical; design: key: average ThT fluorescence emission at 480 nm (ex 450 nm), raw units; conditions: Physical stability of peptides
How it was run: (§1)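 Turbidity is the absorbance at 600 nm, taken before heating. Fibril signal is the mean ThT emission at 480 nm (450 nm excitation), read every 10 min over 72 h at 40° C with 700 rpm shaking between reads. Peptides at 267 μM, pH 4.0 acetate or pH 7.0 phosphate buffer (50 mM), 4 μM ThT final.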

SCTR = SCTR (Homo sapiens, UniProt P47872); experiment: hSCTR potency, cAMP accumulation in CHO-K1 cells stably overexpressing hSCTR; type: cell-based; design: alternatively Euroscreen ES-712-AF; FAST-0161L; host or cells: CHO-K1; conditions: cAMP accumulation, CHO-K1 cells overexpressing hSCTR
Chain of SCTR (P47872 23-440): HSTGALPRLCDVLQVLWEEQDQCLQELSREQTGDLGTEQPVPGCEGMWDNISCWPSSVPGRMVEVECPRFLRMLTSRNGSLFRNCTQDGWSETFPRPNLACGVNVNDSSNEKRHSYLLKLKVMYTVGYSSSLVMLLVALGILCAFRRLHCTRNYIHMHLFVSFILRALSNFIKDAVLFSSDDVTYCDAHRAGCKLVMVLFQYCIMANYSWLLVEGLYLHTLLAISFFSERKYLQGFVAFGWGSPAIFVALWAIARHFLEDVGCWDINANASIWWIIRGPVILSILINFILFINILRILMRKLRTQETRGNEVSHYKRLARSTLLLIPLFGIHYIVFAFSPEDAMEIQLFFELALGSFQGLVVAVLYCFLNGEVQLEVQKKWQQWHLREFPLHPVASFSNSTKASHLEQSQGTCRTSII
How it was run: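 Thawed CHO-K1 cells carrying stable hSCTR are plated into casein/IBMX buffer (0.05%, 0.5 mM), dosed immediately for 30 min at room temperature, then cAMP is detected by TR-FRET. Purified peptides run as 11 three-fold dilutions in duplicate, and curves are fitted with variable slope.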

[2] = Turbidity of crude library peptides (absorbance at 600 nm); type: physicochemical; conditions: Physical stability of peptides
How it was run: as §1

[3] = read-out: hGLP1R pEC50 (converted)
[4] = read-out: hSCTR pEC50 (converted)
[5] = read-out: pEC50 hGLPR1 (converted)
[6] = read-out: pEC50 hSCTR (converted)

Structure (SMILES) | EC50 (GLP1R; [3]) | SCTR EC50/GLP1R EC50 ratio (GLP1R) | Fibril formation [1] | EC50 (SCTR; [4]) | Turbidity (pH 7) [2] | Selectivity (GLP1R) | EC50 (GLP1R; [5]) | EC50 (SCTR; [6])
CC(C)C[C@H](NC(=O)[C@H](Cc1c[nH]c2ccccc12)NC(=O)[C@H](CCCNC(=N)N)NC(=O)[C@H](CCC(N)=O)NC(=O)[C@H](CC(C)C)NC(=O)C(C)(C)NC(=O)[C@H](C)NC(=O)[C@H](CCC(=O)O)NC(=O)[C@H](CCC(=O)O)NC(=O)[C@H](CCCCNC(=O)COCCOCCNC(=O)COCCOCCNC(=O)CC[C@H](NC(=O)CCCCCCCCCCCCCCCCCCC(=O)O)C(=O)O)NC(=O)[C@H](CC(C)C)NC(=O)[C@H](Cc1ccc(O)cc1)NC(=O)[C@H](CO)NC(=O)[C@@H](NC(=O)[C@H](CC(=O)O)NC(=O)[C@H](CO)NC(=O)[C@@H](NC(=O)[C@H](Cc1ccccc1)NC(=O)[C@@H](NC(=O)CNC(=O)[C@H](CCC(=O)O)NC(=O)C(C)(C)NC(=O)[C@@H](N)Cc1c[nH]cn1)[C@@H](C)O)[C@@H](C)O)C(C)C)C(=O)N[C@@H](CCC(=O)O)C(=O)N[C@@H](Cc1c[nH]cn1)C(=O)N[C@@H](CC(C)C)C(=O)N[C@H](C(N)=O)C(C)C [compound 135] (H-H[Aib]EGTFTSDVSYLK([AEEA-AEEA-γGlu-C20 diacid])EEA[Aib]LQRWLEHLV-NH2) | 0.00501 nM | 22241 | 4491 | 126 nM | 0.09 |  |  | 
CC[C@H](C)[C@H](NC(=O)[C@H](Cc1ccccc1)NC(=O)[C@H](CCCNC(=N)N)NC(=O)[C@H](CCC(N)=O)NC(=O)[C@H](CC(C)C)NC(=O)[C@H](C)NC(=O)[C@H](C)NC(=O)CNC(=O)[C@H](CCC(=O)O)NC(=O)[C@H](CC(C)C)NC(=O)[C@H](CC(C)C)NC(=O)[C@H](Cc1c[nH]c2ccccc12)NC(=O)[C@H](CO)NC(=O)[C@@H](NC(=O)[C@H](CC(=O)O)NC(=O)[C@H](CO)NC(=O)[C@@H](NC(=O)[C@H](Cc1ccccc1)NC(=O)[C@@H](NC(=O)CNC(=O)[C@H](CCC(=O)O)NC(=O)C(C)(C)NC(=O)[C@@H](N)Cc1c[nH]cn1)[C@@H](C)O)[C@@H](C)O)[C@@H](C)CC)C(=O)N[C@@H](CCC(N)=O)C(=O)N[C@@H](Cc1c[nH]c2ccccc12)C(=O)N[C@@H](CC(C)C)C(=O)N[C@H](C(N)=O)C(C)C [compound 118] (H-H[Aib]EGTFTSDISWLLEGAALQRFIQWLV-NH2) | 0.0631 nM | 1256 | 143374 | 79.4 nM | 0.63 |  |  | 
CC(C)C[C@H](NC(=O)[C@H](Cc1ccccc1)NC(=O)[C@H](CCCNC(=N)N)NC(=O)[C@H](CCC(N)=O)NC(=O)[C@H](CC(C)C)NC(=O)C(C)(C)NC(=O)[C@H](C)NC(=O)[C@H](CCC(=O)O)NC(=O)[C@H](CCC(=O)O)NC(=O)[C@H](Cc1c[nH]c2ccccc12)NC(=O)[C@H](CC(C)C)NC(=O)[C@H](Cc1ccc(O)cc1)NC(=O)[C@H](CO)NC(=O)[C@@H](NC(=O)[C@H](CC(=O)O)NC(=O)[C@H](CO)NC(=O)[C@@H](NC(=O)[C@H](Cc1ccccc1)NC(=O)[C@@H](NC(=O)CNC(=O)[C@H](CCC(=O)O)NC(=O)C(C)(C)NC(=O)[C@@H](N)Cc1c[nH]cn1)[C@@H](C)O)[C@@H](C)O)C(C)C)C(=O)N[C@@H](CCC(=O)O)C(=O)N[C@@H](CCCCNC(=O)COCCOCCNC(=O)COCCOCCNC(=O)CC[C@H](NC(=O)CCCCCCCCCCCCCCCCCCC(=O)O)C(=O)O)C(=O)N[C@@H](CC(C)C)C(=O)N[C@H](C(N)=O)C(C)C [compound 130] (H-H[Aib]EGTFTSDVSYLWEEA[Aib]LQRFLEK([AEEA-AEEA-γGlu-C20 diacid])LV-NH2) | 0.0316 nM | 34990 | 4181 | 1000 nM | 0.08 |  |  | 
CC(C)C[C@H](NC(=O)[C@H](Cc1ccccc1)NC(=O)[C@H](CCCNC(=N)N)NC(=O)[C@H](CCC(N)=O)NC(=O)C(C)(C)NC(=O)[C@H](C)NC(=O)[C@H](C)NC(=O)[C@H](CCC(=O)O)NC(=O)[C@H](CCC(=O)O)NC(=O)[C@H](CCCCNC(=O)COCCOCCNC(=O)COCCOCCNC(=O)CC[C@H](NC(=O)CCCCCCCCCCCCCCCCCCC(=O)O)C(=O)O)NC(=O)[C@H](CC(C)C)NC(=O)[C@@H](NC(=O)[C@H](CO)NC(=O)[C@@H](NC(=O)[C@H](CC(=O)O)NC(=O)[C@H](CO)NC(=O)[C@@H](NC(=O)[C@H](Cc1ccccc1)NC(=O)[C@@H](NC(=O)CNC(=O)[C@H](CCC(=O)O)NC(=O)C(C)(C)NC(=O)[C@@H](N)Cc1c[nH]cn1)[C@@H](C)O)[C@@H](C)O)C(C)C)C(C)C)C(=O)N[C@@H](CCC(=O)O)C(=O)N[C@@H](Cc1c[nH]cn1)C(=O)N[C@@H](CC(C)C)C(=O)N[C@H](C(N)=O)C(C)C [compound 35] (H-H[Aib]EGTFTSDVSVLK([AEEA-AEEA-γGlu-C20 diacid])EEAA[Aib]QRFLEHLV-NH2) |  |  | 8261 |  | 0.08 | 43142 | 0.0158 nM | 794 nM
CC(C)C[C@H](NC(=O)[C@H](Cc1ccccc1)NC(=O)[C@H](CCCNC(=N)N)NC(=O)[C@H](CCC(N)=O)NC(=O)C(C)(C)NC(=O)[C@H](C)NC(=O)[C@H](C)NC(=O)[C@H](Cc1ccccc1)NC(=O)[C@H](CCC(=O)O)NC(=O)[C@H](CCCCNC(=O)COCCOCCNC(=O)COCCOCCNC(=O)CC[C@H](NC(=O)CCCCCCCCCCCCCCCCCCC(=O)O)C(=O)O)NC(=O)[C@H](CC(C)C)NC(=O)[C@H](Cc1ccc(O)cc1)NC(=O)[C@H](CO)NC(=O)[C@@H](NC(=O)[C@H](CC(=O)O)NC(=O)[C@H](CO)NC(=O)[C@@H](NC(=O)[C@H](Cc1ccccc1)NC(=O)[C@@H](NC(=O)CNC(=O)[C@H](CCC(=O)O)NC(=O)C(C)(C)NC(=O)[C@@H](N)Cc1c[nH]cn1)[C@@H](C)O)[C@@H](C)O)C(C)C)C(=O)N[C@@H](CCC(=O)O)C(=O)N[C@@H](Cc1c[nH]cn1)C(=O)N[C@@H](CC(C)C)C(=O)N[C@H](C(N)=O)C(C)C [compound 46] (H-H[Aib]EGTFTSDVSYLK([AEEA-AEEA-γGlu-C20 diacid])EFAA[Aib]QRFLEHLV-NH2) |  |  | 16732 |  | 0.08 | 67329 | 0.0501 nM | 3980 nM
CC(C)C[C@H](NC(=O)[C@H](C)NC(=O)[C@H](CO)NC(=O)[C@@H](NC(=O)[C@H](CC(=O)O)NC(=O)[C@H](CO)NC(=O)[C@@H](NC(=O)[C@H](Cc1ccccc1)NC(=O)[C@@H](NC(=O)CNC(=O)[C@H](CCC(=O)O)NC(=O)C(C)(C)NC(=O)[C@@H](N)Cc1c[nH]cn1)[C@@H](C)O)[C@@H](C)O)C(C)C)C(=O)N[C@@H](CCCCNC(=O)COCCOCCNC(=O)COCCOCCNC(=O)CC[C@H](NC(=O)CCCCCCCCCCCCCCCCCCC(=O)O)C(=O)O)C(=O)N[C@@H](CCC(=O)O)C(=O)N[C@@H](CCC(=O)O)C(=O)N[C@@H](C)C(=O)NC(C)(C)C(=O)N[C@@H](CC(C)C)C(=O)N[C@@H](CCC(N)=O)C(=O)N[C@@H](CCCNC(=N)N)C(=O)N[C@@H](Cc1ccccc1)C(=O)N[C@@H](CC(C)C)C(=O)N[C@@H](CCC(=O)O)C(=O)N[C@@H](Cc1c[nH]cn1)C(=O)N[C@@H](CC(C)C)C(=O)N[C@H](C(N)=O)C(C)C [compound 148] (H-H[Aib]EGTFTSDVSALK([AEEA-AEEA-γGlu-C20 diacid])EEA[Aib]LQRFLEHLV-NH2) | 0.0158 nM | 4094 | 2928 | 63.1 nM | 0.08 |  |  | 
CC(C)C[C@H](NC(=O)[C@H](Cc1ccccc1)NC(=O)[C@H](CCCNC(=N)N)NC(=O)[C@H](CCC(N)=O)NC(=O)[C@H](CC(C)C)NC(=O)C(C)(C)NC(=O)[C@H](C)NC(=O)[C@H](CCC(=O)O)NC(=O)[C@H](CCC(=O)O)NC(=O)[C@H](CCCCNC(=O)COCCOCCNC(=O)COCCOCCNC(=O)CC[C@H](NC(=O)CCCCCCCCCCCCCCCCCCC(=O)O)C(=O)O)NC(=O)[C@H](CC(C)C)NC(=O)[C@H](Cc1ccc(O)cc1)NC(=O)[C@H](CO)NC(=O)[C@@H](NC(=O)[C@H](CC(=O)O)NC(=O)[C@H](CO)NC(=O)[C@@H](NC(=O)[C@H](Cc1ccccc1)NC(=O)[C@@H](NC(=O)CNC(=O)[C@H](CCC(=O)O)NC(=O)C(C)(C)NC(=O)[C@@H](N)Cc1c[nH]cn1)[C@@H](C)O)[C@@H](C)O)C(C)C)C(=O)N[C@@H](CCC(=O)O)C(=O)N[C@@H](CCC(=O)O)C(=O)N[C@@H](CC(C)C)C(=O)N[C@H](C(N)=O)C(C)C [compound 151] (H-H[Aib]EGTFTSDVSYLK([AEEA-AEEA-γGlu-C20 diacid])EEA[Aib]LQRFLEELV-NH2) | 0.0251 nM | 5170 | 3061 | 126 nM | 0.08 |  |  | 
